Measured values reported in US20250017211A1, “SOLID P[…] CONTROL COMPOSITIONS AND METHODS” (Control Solutions, Inc., priority 2021, published 2025).

What was measured:
[1] = test system: white grubs (Japanese beetles and masked chafers); assay: Preventive control of white grubs in Kentucky bluegrass, second study; format: in vivo, scarab beetle larvae; settings: instant (second) study
Protocol: As with the study of Example 5 above, the purpose of this study was to evaluate rates and timings of novaluron and a wetting agent (Syringe) for controlling white grubs in turfgrass. A trial was conducted on Kentucky bluegrass maintained at a height of 7.6 cm. A randomized complete block design with 4 replications of 5′×5′ plots were used. Treatments were applied and all plots were watered in (0.1″) immediately after application. Treatments and application dates were as described in Table 4. Caged Japanese beetle adults (20 male: 20 female) were placed within each plot. Plots were assessed using a sod cutter set to 3″ depth. All scarab beetle larvae recovered were identified to genus level.

[2] = test system: all white grubs (scarab larvae); assay: Preventive control of scarab larvae in Kentucky bluegrass, first study, all white grubs; format: in vivo, scarab beetle larvae; settings: study of Example 5
Source text: The primary objectives of this study were to evaluate the influence of application rate and timing on the efficacy of novaluran applied preventively against scarab larvae in cool-season turfgrass. The experiment was located on a stand of turfgrass consisting primarily of Kentucky bluegrass maintained at 7.6 cm. Plots measuring 5×5 ft were arranged in a randomized complete-block design with 2 ft alleys between plots. […] Each treatment was replicated 4 times. Plots were irrigated Immediately after each set of applications (0.1″).
Japanese beetle larval infestations were created by driving two, 20.3 cm diameter PVC cylinders into each plot along its mid-line and caging one group of 40 Japanese beetle adults (50:50 sex ratio) within each cylinder during early July. Scarab larval populations were assessed Oct. 12-16, 2019 using a sod cutter to remove a strip of sod lying directly beneath the caging area of each plot and examining the soil to a depth of 3 inches. All scarab larvae recovered from the plots were identified to genus level, counted and recorded. Variation in scarab larval populations was examined using main effects ANOVA and treatment means were compared using Fisher's LSD test (α=0.05). Treatments and application dates were as described in Table 3.

`O=C(NC(=O)c1c(F)cccc1F)Nc1ccc(OC(F)(F)C(F)OC(F)(F)F)c(Cl)c1` (stereo not shown) [Novaluron, novaluron] was tested, and the Control ([1]; 0.675 lb ai/A) was 84-90%, the Control ([1]; 0.9 lb ai/A) was 84-90% and the Control ([2]; 0.675 lb ai/A) was 46-72%. The Control ([2]; 0.9 lb ai/A) was 45-56%.
